Measured values taken from US20130041022A1, “Glyceollins Suppress Androgen-Responsive Prostate Cancer” (UNITED STATES DEPARTMENT OF AGRICULTURE, priority 2008, published 2013).

Key:
Format in all cases: cell-based, human
PC-3 cells = experiment: Cell cycle analysis using flow cytometry (PI), PC-3; details: 25 μM, 72 hours
Experimental: PC-3 cells (3×10^6 cells) were plated in T-175 flask and treated with or without 25 μM of glyceollins or genistein for 72 hr, cell cycle analysis performed as described below. Results are expressed as % of total cells (n=3).
(§1) Cell cycle analysis using flow cytometry. LNCaP or PC3 cells (3×10^6 cells) were seeded into T-175 flask in Medium A. Twenty-four hours later the medium was changed to that containing vehicle or test compounds. […] The cellular DNA was then analyzed by flow cytometry. DNA content of the cells was determined through flow cytometry using a FACScalibur cytometer (Becton Dickinson, San Jose, Calif.). Flow cytometric data files were collected and analyzed using the CELLQuest program (Becton Dickinson). […] Cell cycle distribution percentages of stained nuclei were calculated using Modfit LT software (Version 3.0, Verity Software House, Inc., Topsham, Me.). […]

LNCaP cells = experiment: Cell cycle analysis using flow cytometry (PI), LNCaP; details: 72 hours; glyceollins 0-25 μM, genistein 25 μM
Experimental: LNCaP cells (3×10^6 cell) were plated in T-175 flask and treated with 0, 0.25, 2.5, 12.5, or 25 μM glyceollins or with and without genistein (25 μM) for 72 hr, cell cycle analysis performed as described below. Results are expressed as % of total cells (n=3).
as §1

CDKN1B mRNA = experiment: RT-PCR CDKN1B mRNA in LNCaP cells; details: 48 hours treatment, 0-25 μM
Experimental: LNCaP cells cultured in 10% FBS were treated with 0, 2.5, 12.5, or 25 μM glyceollins for 48 h, total RNA isolated and mRNA levels of CDKN1A determined as described below. Results are expressed as mean+/−SD (n=3).
(§2) Determination of the effects of glyceollins on gene expression in LNCaP cells using RT-PCR. To examine the effects of glyceollins on cyclin inhibitor CDKN1A and B mRNA expression, LNCaP cells were plated in 6-well plates (0.25×10^6 cells/well) in Media A. After twenty-four hours the medium was removed and replaced with fresh medium containing vehicle, 1, 5, or 25 μM glyceollins or genistein. For experiments examining the effects of glyceollins on steroid hormone, LNCaP cells were plated in 6-well plates (0.25×10^6 cells/well) in Media A and switched to Media B containing 10% CDS 24 h after plating to minimize the effect of serum hormones. Twenty-four hours later, the medium was replaced with fresh medium containing 1 nM DHT or 17β-estradiol with or without 0-25 μM glyceollin. For all experiments fresh medium containing the test compounds was changed daily and cells were harvested for total RNA isolation using the Trizol method (Invitrogen) after 48 h. Taqman real-time PCR was used to quantify expression of the mRNA. […]

CDKN1A mRNA = experiment: RT-PCR CDKN1A mRNA in LNCaP cells; details: 48 hours treatment, 10% FBS
Experimental: LNCaP cells cultured in 10% FBS were treated with 0, 2.5, 12.5, or 25 μM glyceollins for 48 h, total RNA isolated and mRNA levels of CDKN1A determined as described below. Results are expressed as mean +/−SD (n=3).
LNCaP cells cultured in 10% FBS were treated with 0, 1, 5, 12.5 or 25 μM genistein for 48 h, total RNA isolated and mRNA levels of CDKN1A determined as described below. Results are expressed as mean+/−SD (n=3).
as §2, with “For all experiments fresh medium containing the test compounds was changed daily and cells were harvested for total RNA isolation using the Trizol method (Invitrogen) after 48 h.” left out

## O=c1c(-c2ccc(O)cc2)coc2cc(O)cc(O)c12 [genistein]
PC-3 cells
  G2/M blockage in PC-3 cells: lead to G2/M blockage
LNCaP cells
  effect on cell cycle progression in LNCaP cells: G1/G0 arrest
CDKN1B mRNA
  effect on CDKN1B mRNA levels in LNCaP cells: no changes
CDKN1A mRNA
  concentration at which significant change/induction of CDKN1A mRNA is observed: 25 µM
